# From patent US8476197B2, “Aminopropenoates as fungicides” (priority 2009, dated 2013)
# Marks after values point to notes of the source that are not given here.
# Settings: pH 2.7
row,SMILES,Log P
1,CCOC(=O)C(C#N)=C(NC1CC1C)c1cn(C)nc1C(F)F (stereo not shown) [Compound 1130],2.68^[a]
2,CCOC(=O)C(C#N)=C(NC1C2CCCCC21)c1cn(C)nc1C(F)F (stereo not shown) [Compound 1131],3.44^[a]
3,CCOC(=O)C(C#N)=C(NC1(C#N)CC1)c1cn(C)nc1C(F)F [Compound 1132],2.1^[a]
4,CCOC(=O)C(C#N)=C(NC(C)C1CCC1)c1cn(C)nc1C(F)F (stereo not shown) [Compound 1133],3.33^[a]
5,CCOC(=O)C(C#N)=C(NC(C)C1CC2CCC1C2)c1cn(C)nc1C(F)F (stereo not shown) [Compound 1134],4.03^[a]
6,CCOC(=O)C(C#N)=C(NC(C)COCC(C)(C)C)c1cn(C)nc1C(F)F (stereo not shown) [Compound 1135],4.08^[a]
7,CCOC(=O)C(C#N)=C(NC(C)CC1CC1)c1cn(C)nc1C(F)F (stereo not shown) [Compound 1136],3.23^[a]
8,CCOC(=O)C(C#N)=C(NC(C(=O)NC)c1ccccc1)c1cn(C)nc1C(F)F (stereo not shown) [Compound 1137],2.27^[a]
9,CCOC(=O)C(C#N)=C(NC(C)CC(=O)Nc1ccccc1C)c1cn(C)nc1C(F)F (stereo not shown) [Compound 1138],2.68^[a]
10,CCOC(=O)CC(C)NC(=C(C#N)C(=O)OCC)c1cn(C)nc1C(F)F (stereo not shown) [Compound 1139],2.66^[a]
11,CCOC(=O)C(C#N)=C(NC(C(=O)OC)c1ccccc1)c1cn(C)nc1C(F)F (stereo not shown) [Compound 1140],2.94^[a]
12,CCOC(=O)C(C#N)=C(NC(C)C1CC=CCC1)c1cn(C)nc1C(F)F (stereo not shown) [Compound 1141],3.62^[a]
13,CC#CC(C)NC(=C(C#N)C(=O)OCC)c1cn(C)nc1C(F)F (stereo not shown) [Compound 1142],2.8^[a]
14,CC#CC1(NC(=C(C#N)C(=O)OCC)c2cn(C)nc2C(F)F)CCCC1 [Compound 1143],3.39^[a]
15,CCOC(=O)C(C#N)=C(NC1CC2CCC1C2)c1cn(C)nc1C(F)F (stereo not shown) [Compound 1144],3.46^[a]
16,CCOC(=O)C(C#N)=C(NC1CC1CC)c1cn(C)nc1C(F)F (stereo not shown) [Compound 1146],3.04^[a]
17,CCOC(=O)C(C#N)=C(NC1CC1C(F)(F)F)c1cn(C)nc1C(F)F (stereo not shown) [Compound 1147],2.75^[a]
18,CCOC(=O)C(C#N)=C(NC1CC1(C)C)c1cn(C)nc1C(F)F (stereo not shown) [Compound 1148],3^[a]
19,CCOC(=O)C(C#N)=C(NC(C)c1ccc(F)cc1)c1cccnc1Cl (stereo not shown) [Compound 1149],3.51^[a]
20,CCOC(=O)C(C#N)=C(NC(C)c1ccc(C)cc1)c1cccnc1Cl (stereo not shown) [Compound 1150],3.87^[a]
21,CCOC(=O)C(C#N)=C(NC(C)c1ccccc1)c1cccnc1Cl (stereo not shown) [Compound 1151],3.48^[a]
22,CCOC(=O)C(C#N)=C(NC(C)c1cccc(Cl)c1)c1cccnc1Cl (stereo not shown) [Compound 1152],3.83^[a]

row,SMILES,Log P
1,CCOC(=O)C(C#N)=C(Nc1ccc(OC)cc1)c1cccnc1Cl [Compound 1153],2.98^[a]
2,CCOC(=O)C(C#N)=C(Nc1ccc(C(C)C)cc1)c1cccnc1Cl [Compound 1154],4.08^[a]
3,CCOC(=O)C(C#N)=C(NC(C)COc1ccccc1C)c1cccnc1Cl (stereo not shown) [Compound 1155],4.01^[a]
4,CCOC(=O)C(C#N)=C(NC(C)CSc1ccc(Cl)cc1)c1cccnc1Cl (stereo not shown) [Compound 1156],4.08^[a]
5,CCOC(=O)C(C#N)=C(NC(C)CSc1cc(Cl)ccc1Cl)c1cccnc1Cl (stereo not shown) [Compound 1157],4.27^[a]
6,CCOC(=O)C(C#N)=C(NC(C)CSc1ccc(Cl)c(Cl)c1)c1cccnc1Cl (stereo not shown) [Compound 1158],4.41^[a]
7,CCOC(=O)C(C#N)=C(NC(C)C(C)Sc1ccccc1)c1cccnc1Cl (stereo not shown) [Compound 1159],4.13^[a]
8,CCOC(=O)C(C#N)=C(NC(C)COc1cccc(C(F)(F)F)c1)c1cccnc1Cl (stereo not shown) [Compound 1160],4.13^[a]
9,CCOC(=O)C(C#N)=C(NC(C)COc1ccccc1)c1cccnc1Cl (stereo not shown) [Compound 1161],3.58^[a]
10,CCOC(=O)C(C#N)=C(NC(C)COCc1ccccc1)c1cccnc1Cl (stereo not shown) [Compound 1162],3.71^[a]
11,CCOC(=O)C(C#N)=C(NC(C)COCc1ccccc1F)c1cccnc1Cl (stereo not shown) [Compound 1163],3.69^[a]
12,CCOC(=O)C(C#N)=C(NC(C)COc1ccccc1Cl)c1cccnc1Cl (stereo not shown) [Compound 1164],3.78^[a]
13,CCOC(=O)C(C#N)=C(NC(C)COc1ccc(C)cc1)c1cccnc1Cl (stereo not shown) [Compound 1165],3.94^[a]
14,CCOC(=O)C(C#N)=C(NC(C)COc1ccc(F)cc1)c1cccnc1Cl (stereo not shown) [Compound 1166],3.62^[a]
15,CCOC(=O)C(C#N)=C(NC(C)CCc1ccccc1)c1cccnc1Cl (stereo not shown) [Compound 1167],3.92^[a]
16,CCOC(=O)C(C#N)=C(Nc1ccccc1OC(C)C)c1cccnc1Cl [Compound 1168],3.8^[a]
17,CCOC(=O)C(C#N)=C(Nc1ccc(OC(F)F)cc1)c1cccnc1Cl [Compound 1169],3.19^[a]
18,CCOC(=O)C(C#N)=C(Nc1ccc(SC)cc1)c1cccnc1Cl [Compound 1170],3.37^[a]
19,CCOC(=O)C(C#N)=C(NCc1ccccc1SC)c1cccnc1Cl [Compound 1171],3.37^[a]
20,CCOC(=O)C(C#N)=C(NC(C)COCc1ccccc1Cl)c1cccnc1Cl (stereo not shown) [Compound 1172],4.06^[a]
21,CCOC(=O)C(C#N)=C(NC(C)COc1cccc(OC)c1)c1cccnc1Cl (stereo not shown) [Compound 1173],3.58^[a]
22,CCOC(=O)C(C#N)=C(NC(C)CC)c1cccnc1Cl (stereo not shown) [Compound 1174],3^[a]

row,SMILES,Log P
1,CCCCCNC(=C(C#N)C(=O)OCC)c1cccnc1Cl [Compound 1175],3.53^[a]
2,C=CCCCC(C=C)NC(=C(C#N)C(=O)OCC)c1cccnc1Cl (stereo not shown) [Compound 1176],4.01^[a]
3,CCOC(=O)C(C#N)=C(NC(C)C1CC2CCC1C2)c1cccnc1Cl (stereo not shown) [Compound 1177],4.39^[a]
4,CCOC(=O)C(C#N)=C(NC(C)COCC(C)(C)C)c1cccnc1Cl (stereo not shown) [Compound 1178],4.34^[a]
5,CCOC(=O)C(C#N)=C(NC(C)COc1c(C)cccc1C)c1cccnc1Cl (stereo not shown) [Compound 1180],4.26^[a]
6,C#CC(C)NC(=C(C#N)C(=O)OCC)c1cccnc1Cl (stereo not shown) [Compound 1181],2.66^[a]
7,CCOC(=O)C(C#N)=C(NC(C)C1(Cl)CC1)c1cccnc1Cl (stereo not shown) [Compound 1182],3.33^[a]
8,CCOC(=O)C(C#N)=C(NCCOC)c1cccnc1Cl [Compound 1183],2.17^[a]
9,CCOC(=O)C(C#N)=C(NCCCCO)c1cccnc1Cl [Compound 1184],1.75^[a]
10,CCOC(=O)C(C#N)=C(NCCC(C)C)c1cccnc1Cl [Compound 1185],3.44^[a]
11,CCOC(=O)C(C#N)=C(NC1CCC1)c1cccnc1Cl [Compound 1186],2.92^[a]
12,CCOC(=O)C(C#N)=C(NC(C)CCCC(C)C)c1cccnc1Cl (stereo not shown) [Compound 1187],4.62^[a]
13,CCCCCC(C)NC(=C(C#N)C(=O)OCC)c1cccnc1Cl (stereo not shown) [Compound 1188],4.26^[a]
14,CCOC(=O)C(C#N)=C(NC1CC1CC)c1cccnc1Cl (stereo not shown) [Compound 1190],3.23^[a]
15,CCOC(=O)C(C#N)=C(NC(C)C1CCC1)c1cccnc1Cl (stereo not shown) [Compound 1191],3.55^[a]
16,CCOC(=O)C(C#N)=C(NC(C)CC(=O)Nc1ccccc1C)c1cccnc1Cl (stereo not shown) [Compound 1192],2.8^[a]
17,CCOC(=O)C(C#N)=C(NC(C)C(=O)Nc1ccc2ccccc2c1)c1cccnc1Cl (stereo not shown) [Compound 1193],3.51^[a]
18,CCOC(=O)C(C#N)=C(NC(C)C(=O)OCC)c1cccnc1Cl (stereo not shown) [Compound 1194],2.82^[a]
19,CCOC(=O)C(C#N)=C(NC(C(=O)OC)c1ccccc1)c1cccnc1Cl (stereo not shown) [Compound 1195],3.08^[a]
20,CCOC(=O)C(C#N)=C(NC(CC(C)C)C(=O)OCC)c1cccnc1Cl (stereo not shown) [Compound 1196],3.89^[a]
21,C=CC(COCc1ccccc1)NC(=C(C#N)C(=O)OCC)c1cccnc1Cl (stereo not shown) [Compound 1197],3.8^[a]
22,CC#CC(C)NC(=C(C#N)C(=O)OCC)c1cccnc1Cl (stereo not shown) [Compound 1198],3.02^[a]

row,SMILES,Log P
1,CCNC(=O)C(C#N)=C(NC(C)C(C)C)c1cccnc1C#N (stereo not shown) [Compound 1199],2.64^[a]
2,CCNC(=O)C(C#N)=C(NC(C)C(C)C)c1ccnc(Cl)c1Cl (stereo not shown) [Compound 1200],3.57^[a]
3,CCNC(=O)C(C#N)=C(NC(C)c1ccccn1)c1ccnc(Cl)c1Cl (stereo not shown) [Compound 1201],2.53^[a]
4,CCOC(=O)C(C#N)=C(NC(C)C(C)C)c1cn(C)nc1I (stereo not shown) [Compound 1202],3.22^[a]
5,CCOC(=O)C(C#N)=C(NC(C)C(C)C)c1cn(C)nc1C (stereo not shown) [Compound 1203],2.8^[a]
6,CCOC(=O)C(C#N)=C(NC(C)c1ccccn1)c1cn(C)nc1C (stereo not shown) [Compound 1204],1.99^[a]
7,CCOC(=O)C(C#N)=C(NC(C)C(C)C)c1cn(C)nc1CC (stereo not shown) [Compound 1205],3.13^[a]
8,CCOC(=O)C(C#N)=C(NC(C)c1ccccn1)c1cn(C)nc1CC (stereo not shown) [Compound 1206],2.25^[a]
9,CCOC(=O)C(C#N)=C(NC(C)c1ccccn1)c1cn(C)nc1C(C)C (stereo not shown) [Compound 1207],2.58^[a]
10,CCOC(=O)C(C#N)=C(NC(C)C(C)C)c1cn(C)nc1C(C)C (stereo not shown) [Compound 1208],3.46^[a]
11,CCOC(=O)C(C#N)=C(NC(C)C(C)C)c1ccnc(Br)c1Cl (stereo not shown) [Compound 1209],3.94^[a]
12,CCNC(=O)C(C#N)=C(NC(C)C(C)C)c1ccnc(Br)c1Cl (stereo not shown) [Compound 1210],3.6^[a]
13,CCOC(=O)C(C#N)=C(NC(C)C(C)C)c1ccnc(C)c1Cl (stereo not shown) [Compound 1211],3.51^[a]
14,CCOC(=O)C(C#N)=C(NC(C)c1nccs1)c1cn(C)nc1C (stereo not shown) [Compound 1212],2.11^[a]
15,CCOC(=O)C(C#N)=C(NC(C)c1nccs1)c1cn(C)nc1CC (stereo not shown) [Compound 1213],2.35^[a]
16,CCOC(=O)C(C#N)=C(NC(C)c1nccs1)c1cn(C)nc1C(C)C (stereo not shown) [Compound 1214],2.62^[a]
17,CCOC(=O)C(C#N)=C(NC(C)(C)c1ccc(Cl)cc1)c1cn(C)nc1C(F)F [Compound 1215],3.71^[a]
18,CCOC(=O)C(C#N)=C(Nc1ccccc1Cl)c1cn(C)nc1C(F)F [Compound 1216],3.15^[a]
19,CCOC(=O)C(C#N)=C(Nc1ccc(C#N)cc1)c1cn(C)nc1C(F)F [Compound 1217],2.64^[a]
